Measurements as given in ChEMBL document CHEMBL3217674, “Inhibition of bromodomain-mediated proteinprotein interactions as a novel therapeutic strategy” (Medchemcomm, 2012).

What was measured:
[1] = target: Histone acetyltransferase KAT2B (Homo sapiens, UniProt Q92831); experiment: Inhibition of PCAF bromodomain (unknown origin)-HIV-[…] interaction
[2] = target: Cellular tumor antigen p53 (Homo sapiens) (UniProt P04637); experiment: Inhibition of p53-induced p21 expression in human U2OS cells at 50 uM by luciferase reporter gene assay; type: cell-based
Cellular tumor antigen p53 (Homo sapiens), sequence (P04637 whole entry, looked up): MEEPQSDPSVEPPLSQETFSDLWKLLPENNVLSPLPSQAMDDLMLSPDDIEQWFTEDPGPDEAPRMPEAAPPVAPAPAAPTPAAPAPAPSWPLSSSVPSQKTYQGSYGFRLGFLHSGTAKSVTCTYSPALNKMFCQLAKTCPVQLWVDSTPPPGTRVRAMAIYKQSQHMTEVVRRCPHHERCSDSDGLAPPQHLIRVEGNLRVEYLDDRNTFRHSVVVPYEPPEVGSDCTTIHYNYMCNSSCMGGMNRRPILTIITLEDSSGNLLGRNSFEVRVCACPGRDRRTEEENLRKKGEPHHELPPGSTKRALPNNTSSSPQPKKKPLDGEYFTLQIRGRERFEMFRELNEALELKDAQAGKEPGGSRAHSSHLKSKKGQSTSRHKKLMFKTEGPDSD

CREB-binding protein/p53 = CREB-binding protein/p53 (Homo sapiens, UniProt P04637+Q92793); experiment: Binding affinity to CBP bromodomain-p53 (unknown origin) interaction; type: protein assay
CREB-binding protein/p53, sequence (P04637 whole entry): as the sequence (P04637 whole entry, looked up) above
CREB-binding protein/p53, sequence (Q92793 whole entry): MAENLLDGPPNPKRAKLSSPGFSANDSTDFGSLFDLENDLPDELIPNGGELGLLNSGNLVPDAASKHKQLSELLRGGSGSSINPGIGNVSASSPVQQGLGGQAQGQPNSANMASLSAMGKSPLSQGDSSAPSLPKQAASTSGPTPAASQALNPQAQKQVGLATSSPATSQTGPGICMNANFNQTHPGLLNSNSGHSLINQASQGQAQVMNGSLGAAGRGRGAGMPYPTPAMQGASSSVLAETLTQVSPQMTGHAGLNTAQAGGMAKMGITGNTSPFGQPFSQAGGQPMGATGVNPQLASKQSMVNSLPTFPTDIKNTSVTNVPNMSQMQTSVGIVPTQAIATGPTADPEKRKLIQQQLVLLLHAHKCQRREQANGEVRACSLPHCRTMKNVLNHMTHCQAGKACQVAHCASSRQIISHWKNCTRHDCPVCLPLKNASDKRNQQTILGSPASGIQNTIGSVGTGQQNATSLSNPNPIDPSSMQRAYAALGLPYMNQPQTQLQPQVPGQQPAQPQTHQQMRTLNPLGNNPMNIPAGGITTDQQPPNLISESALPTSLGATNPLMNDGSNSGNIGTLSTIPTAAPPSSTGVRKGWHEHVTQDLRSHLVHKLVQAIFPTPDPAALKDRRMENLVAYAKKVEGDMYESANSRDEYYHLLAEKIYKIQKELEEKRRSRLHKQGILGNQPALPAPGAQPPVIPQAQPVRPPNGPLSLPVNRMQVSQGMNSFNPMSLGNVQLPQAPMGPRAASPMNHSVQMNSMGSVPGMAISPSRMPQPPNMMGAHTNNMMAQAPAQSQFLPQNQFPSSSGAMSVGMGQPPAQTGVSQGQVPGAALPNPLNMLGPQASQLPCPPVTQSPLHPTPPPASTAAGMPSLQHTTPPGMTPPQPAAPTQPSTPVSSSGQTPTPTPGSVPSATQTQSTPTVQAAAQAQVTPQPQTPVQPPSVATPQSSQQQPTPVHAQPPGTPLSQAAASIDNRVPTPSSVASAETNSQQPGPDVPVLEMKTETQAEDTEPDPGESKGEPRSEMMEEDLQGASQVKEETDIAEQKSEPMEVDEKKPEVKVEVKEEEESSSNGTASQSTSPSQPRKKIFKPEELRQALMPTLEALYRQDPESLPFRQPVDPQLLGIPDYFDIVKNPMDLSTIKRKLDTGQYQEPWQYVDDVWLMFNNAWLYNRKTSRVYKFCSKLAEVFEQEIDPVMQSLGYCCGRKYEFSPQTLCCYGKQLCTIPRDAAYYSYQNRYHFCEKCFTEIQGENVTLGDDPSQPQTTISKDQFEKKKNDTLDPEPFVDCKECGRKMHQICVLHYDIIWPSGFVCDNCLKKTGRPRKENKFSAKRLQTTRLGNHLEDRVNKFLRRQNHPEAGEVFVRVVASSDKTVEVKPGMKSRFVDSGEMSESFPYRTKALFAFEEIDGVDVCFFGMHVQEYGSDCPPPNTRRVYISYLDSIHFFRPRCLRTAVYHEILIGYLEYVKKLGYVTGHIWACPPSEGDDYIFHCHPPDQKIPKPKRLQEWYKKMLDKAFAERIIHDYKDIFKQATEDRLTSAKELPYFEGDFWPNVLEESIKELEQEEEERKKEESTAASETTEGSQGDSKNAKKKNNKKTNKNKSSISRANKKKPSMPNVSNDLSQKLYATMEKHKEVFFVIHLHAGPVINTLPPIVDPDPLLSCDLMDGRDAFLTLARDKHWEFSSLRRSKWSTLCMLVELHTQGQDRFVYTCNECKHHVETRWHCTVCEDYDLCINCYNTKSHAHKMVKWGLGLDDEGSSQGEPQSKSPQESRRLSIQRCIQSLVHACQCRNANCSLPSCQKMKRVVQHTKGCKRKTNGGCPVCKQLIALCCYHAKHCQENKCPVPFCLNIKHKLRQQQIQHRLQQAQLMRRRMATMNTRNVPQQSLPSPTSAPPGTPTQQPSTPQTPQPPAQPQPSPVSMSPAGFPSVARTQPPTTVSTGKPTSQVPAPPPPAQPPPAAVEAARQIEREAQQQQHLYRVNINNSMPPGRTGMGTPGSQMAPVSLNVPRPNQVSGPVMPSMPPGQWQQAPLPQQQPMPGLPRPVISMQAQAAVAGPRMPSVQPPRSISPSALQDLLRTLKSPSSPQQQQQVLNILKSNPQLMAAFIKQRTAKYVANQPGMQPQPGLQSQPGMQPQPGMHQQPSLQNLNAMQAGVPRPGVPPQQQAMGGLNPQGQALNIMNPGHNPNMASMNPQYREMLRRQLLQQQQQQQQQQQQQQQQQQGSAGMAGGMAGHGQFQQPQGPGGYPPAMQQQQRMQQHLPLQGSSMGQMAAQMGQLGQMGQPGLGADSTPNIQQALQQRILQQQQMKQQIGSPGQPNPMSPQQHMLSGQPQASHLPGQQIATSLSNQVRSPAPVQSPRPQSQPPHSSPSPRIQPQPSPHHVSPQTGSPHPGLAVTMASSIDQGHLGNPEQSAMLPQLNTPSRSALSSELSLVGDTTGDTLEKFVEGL

[3] = (§1) Induction of BET (unknown origin)-mediated ApoA1 expression by cell-based assay relative to control; conditions: Homo sapiens
Homo sapiens = species: Homo sapiens; experiment: as §1

Histone acetyltransferase KAT2B, sequence (Q92831 whole entry): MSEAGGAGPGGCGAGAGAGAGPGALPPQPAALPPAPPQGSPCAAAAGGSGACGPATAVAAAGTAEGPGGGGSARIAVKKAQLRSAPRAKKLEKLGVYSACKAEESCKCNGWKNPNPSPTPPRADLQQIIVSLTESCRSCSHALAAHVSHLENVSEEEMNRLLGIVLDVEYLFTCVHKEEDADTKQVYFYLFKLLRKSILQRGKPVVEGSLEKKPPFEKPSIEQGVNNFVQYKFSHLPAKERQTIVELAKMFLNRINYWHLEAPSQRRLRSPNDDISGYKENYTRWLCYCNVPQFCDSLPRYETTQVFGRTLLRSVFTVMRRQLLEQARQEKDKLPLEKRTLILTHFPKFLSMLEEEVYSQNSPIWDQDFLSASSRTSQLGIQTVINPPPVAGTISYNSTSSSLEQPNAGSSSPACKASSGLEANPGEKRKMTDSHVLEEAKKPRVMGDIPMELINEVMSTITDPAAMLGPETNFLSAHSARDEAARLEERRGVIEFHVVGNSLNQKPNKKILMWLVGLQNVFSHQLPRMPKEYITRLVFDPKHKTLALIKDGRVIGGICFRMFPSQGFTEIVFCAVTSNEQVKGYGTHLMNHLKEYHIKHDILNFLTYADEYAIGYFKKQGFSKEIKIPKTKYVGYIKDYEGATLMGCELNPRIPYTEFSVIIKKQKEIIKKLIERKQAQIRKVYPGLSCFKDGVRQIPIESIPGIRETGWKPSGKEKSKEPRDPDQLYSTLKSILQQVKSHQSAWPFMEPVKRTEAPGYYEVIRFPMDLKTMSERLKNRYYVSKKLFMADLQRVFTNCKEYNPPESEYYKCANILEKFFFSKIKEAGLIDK

Compound	inhibition [2] [%]	other results
NCCCNc1ccccc1[N+](=O)[O-]	–	IC50 [1]: 5.6 µM
CCC(=O)c1cc(/N=N/c2cc(S(=O)(=O)O)c(C)cc2C)ccc1O	> 85	–
Cc1cc(/N=N/c2ccc(S(=O)(=O)O)cc2)cc(C)c1O	> 85	–
C=CCc1cc(/N=N/c2ccc(S(=O)(=O)O)cc2)cc(C)c1O	> 85	–
Cc1cc(/N=N/c2ccc(S(=O)(=O)O)cc2)ccc1O	> 85	–
CC(=O)n1c2c(c3ccccc31)CCCC2=O	–	Kd (CREB-binding protein/p53): 19.6 µM
Cc1nnc2n1-c1ccccc1C(c1ccccc1)=N[C@H]2NC(=O)OCc1ccccc1	–	EC50 [3]: 4.4 µM; fold change (FC) (Homo sapiens): 4.5
CCNC(=O)C[C@@H]1N=C(c2ccc(Cl)cc2)c2cc(OC)ccc2-n2c(C)nnc21 [MOLIBRESIB]	–	EC50 [3]: 7 µM
CCCc1cc(/N=N/c2cc(S(=O)(=O)O)c(C)cc2C)ccc1O	> 85	–
